“And” between values parts separate entries of the source, which are not always exact repeats. Equal entries are not always repeated. Records with an inconclusive call do not appear.
Test system: B6C3F1 mice, colon carcinoma 38 s.c., T/C
Test: NCI In Vivo Anticancer Drug Screen. Data for tumor model Colon Carcinoma 38 (subcutaneous) in B6C3F1 mice
Conditions: endpoint: median tumor weight (est.), higher = larger tumour
Experimental: The antitumor activity of compounds was measured in mice bearing transplantable tumors. Survival or tumor size were measured and the results are expressed as the measurement made in the treated group (T) divided by the measurement made in the vehicle treated control group (C). The tumor model used in this assay is Colon Carcinoma 38 (subcutaneous) in B6C3F1 mice

[1] = dose: 50.0 mg/kg/injection, schedule: Q07DX002 (ip), vehicle: Klucel (hydroxypropylcellulose) (HPC)
[2] = dose: 100.0 mg/kg/injection, schedule: Q07DX002 (ip), vehicle: Klucel (hydroxypropylcellulose) (HPC)
[3] = dose: 200.0 mg/kg/injection, schedule: Q07DX002 (ip), vehicle: Klucel (hydroxypropylcellulose) (HPC)
[4] = dose: 25.0 mg/kg/injection, schedule: Q07DX002 (ip), vehicle: saline
[5] = dose: 50.0 mg/kg/injection, schedule: Q07DX002 (ip), vehicle: saline
[6] = dose: 100.0 mg/kg/injection, schedule: Q07DX002 (ip), vehicle: saline
[7] = dose: 200.0 mg/kg/injection, schedule: Q07DX002 (ip), vehicle: saline
[8] = dose: 50.0 mg/kg/injection, schedule: Q07DX002 (ip), vehicle: water
[9] = dose: 4.0 mg/kg/injection, schedule: Q07DX002 (ip), vehicle: saline
[10] = dose: 8.0 mg/kg/injection, schedule: Q07DX002 (ip), vehicle: saline
[11] = dose: 50.0 mg/kg/injection, schedule: Q07DX002 (ip), vehicle: saline with Tween-80
[12] = dose: 100.0 mg/kg/injection, schedule: Q07DX002 (ip), vehicle: saline with Tween-80
[13] = dose: 200.0 mg/kg/injection, schedule: Q07DX002 (ip), vehicle: saline with Tween-80
[14] = dose: 400.0 mg/kg/injection, schedule: Q07DX002 (ip), vehicle: saline with Tween-80

## CCC/C=C/C=C/C(=O)OC1/C(=C/C(=O)OC)CC2CC(C(C)O)OC(=O)CC(O)CC3CC(OC(C)=O)C(C)(C)C(O)(CC4C/C(=C/C(=O)OC)CC(/C=C/C(C)(C)C1(O)O2)O4)O3 (stereo unspecified)
dose: 37.5 micrograms/kg/injection, schedule: Q07DX002 (ip), vehicle: saline + alcohol
  T/C: 191 % of control
dose: 300.0 micrograms/kg/injection, schedule: Q07DX002 (ip), vehicle: saline + alcohol
  T/C: 74 % of control

## Cn1cc(C2NC(=O)c3ccccc3N2)c2ccccc21 (stereo unspecified)
[1]
  T/C: 46 % of control
[2]
  T/C: 244 % of control
[3]
  T/C: 42 % of control and 63 % of control
dose: 400.0 mg/kg/injection, schedule: Q07DX002 (ip), vehicle: Klucel (hydroxypropylcellulose) (HPC)
  T/C: 151 % of control
dose: 1600.0 mg/kg/injection, schedule: Q07DX002 (ip), vehicle: Klucel (hydroxypropylcellulose) (HPC)
  T/C: 96 % of control

## CN(CCN(C)C(=O)CCOS(C)(=O)=O)C(=O)CCOS(C)(=O)=O
dose: 12.5 mg/kg/injection, schedule: Q07DX002 (ip), vehicle: saline
  T/C: 121 % of control
[4]
  T/C: 92 % of control
[5]
  T/C: 51 % of control
[6]
  T/C: 51 % of control
[7]
  T/C: 12 % of control

## CNC(=O)c1cccc2c(Nc3ccc(NS(C)(=O)=O)cc3OC)c3cccc(C)c3nc12
dose: 6.25 mg/kg/injection, schedule: Q07DX002 (ip), vehicle: water
  T/C: 60 % of control
dose: 12.5 mg/kg/injection, schedule: Q07DX002 (ip), vehicle: water
  T/C: 48 % of control
dose: 25.0 mg/kg/injection, schedule: Q07DX002 (ip), vehicle: water
  T/C: 17 % of control
[8]
  T/C: 4 % of control

## S=P(N1CC1)(N1CC1)N1CC1
dose: 3.0 mg/kg/injection, schedule: Q07DX003 (ip), vehicle: saline
  T/C: 58 % of control
dose: 6.0 mg/kg/injection, schedule: Q07DX003 (ip), vehicle: saline
  T/C: 57 % of control
dose: 12.0 mg/kg/injection, schedule: Q07DX003 (ip), vehicle: saline
  T/C: 23 % of control

## CN(C)/N=N/c1nc[nH]c1C(N)=O
dose: 90.0 mg/kg/injection, schedule: Q01DX006 (ip), vehicle: carboxymethylcellulose (CMC)
  T/C: 47 % of control

## NC1(C(=O)O)CCCC1
dose: 50.0 mg/kg/injection, schedule: Q07DX003 (ip), vehicle: saline
  T/C: 69 % of control
dose: 100.0 mg/kg/injection, schedule: Q07DX003 (ip), vehicle: saline
  T/C: 81 % of control
dose: 200.0 mg/kg/injection, schedule: Q07DX003 (ip), vehicle: saline
  T/C: 39 % of control

## O=P1(N(CCCl)CCCl)NCCCO1 (stereo unspecified)
[4]
  T/C: 44 % of control
[5]
  T/C: 52 % of control
[6]
  T/C: 13 % of control
[7]
  T/C: 7 % of control

## OC(C1CO1)C(O)C1CO1 (stereo unspecified)
dose: 2.0 mg/kg/injection, schedule: Q07DX002 (ip), vehicle: saline
  T/C: 117 % of control
[9]
  T/C: 107 % of control
[10]
  T/C: 57 % of control

## Cc1c(-c2ccc(-c3ccccc3F)cc2)nc2ccc(F)cc2c1C(=O)O
dose: 3.6 mg/kg/injection, schedule: Q01DX008 (ip), vehicle: water
  T/C: 45 % of control
dose: 6.0 mg/kg/injection, schedule: Q01DX008 (ip), vehicle: water
  T/C: 53 % of control
dose: 10.0 mg/kg/injection, schedule: Q01DX008 (ip), vehicle: water
  T/C: 43 % of control
dose: 16.6 mg/kg/injection, schedule: Q01DX008 (ip), vehicle: water
  T/C: 26 % of control
dose: 27.7 mg/kg/injection, schedule: Q01DX008 (ip), vehicle: water
  T/C: 23 % of control

## COc1cc2c[n+](C)c3c(c2cc1OC)Cc1cc2c(cc1-3)OCO2
[11]
  T/C: 94 % of control
[12]
  T/C: 107 % of control
[13]
  T/C: 97 % of control
[14]
  T/C: 85 % of control

## CC(C)CCC(=O)c1ccoc1
dose: 0.25 mg/kg/injection, schedule: Q03HX006 (ip), vehicle: saline with Tween-80
  T/C: 56 % of control
dose: 0.5 mg/kg/injection, schedule: Q03HX006 (ip), vehicle: saline with Tween-80
  T/C: 56 % of control
dose: 1.0 mg/kg/injection, schedule: Q03HX006 (ip), vehicle: saline with Tween-80
  T/C: 81 % of control
dose: 2.0 mg/kg/injection, schedule: Q03HX006 (ip), vehicle: saline with Tween-80
  T/C: 87 % of control

## O=C(C/C(=N\C(=S)Nc1cc(C(F)(F)F)ccc1Cl)NO)N1CCCC1
[11]
  T/C: 85 % of control
[12]
  T/C: 57 % of control
[13]
  T/C: 70 % of control
[14]
  T/C: 100 % of control

## Cc1cc(N/N=C/c2ccccn2)nc2ccccc12
[1]
  T/C: 65 % of control
[2]
  T/C: 90 % of control
[3]
  T/C: 74 % of control

## Oc1cccc2ccccc12
[8]
  T/C: 91 % of control
dose: 100.0 mg/kg/injection, schedule: Q07DX002 (ip), vehicle: water
  T/C: 87 % of control
dose: 200.0 mg/kg/injection, schedule: Q07DX002 (ip), vehicle: water
  T/C: 76 % of control

## Nc1nc(-c2ccccc2)c(Br)c(=O)[nH]1
[13]
  T/C: 115 % of control
[14]
  T/C: 87 % of control

## NC(=O)c1c[se]c(C2OC(CO)C(O)C2O)n1 (stereo unspecified)
[5]
  T/C: 90 % of control
[6]
  T/C: 87 % of control
[7]
  T/C: 84 % of control
dose: 400.0 mg/kg/injection, schedule: Q07DX002 (ip), vehicle: saline
  T/C: 92 % of control
dose: 800.0 mg/kg/injection, schedule: Q07DX002 (ip), vehicle: saline
  T/C: 56 % of control

## O=c1[nH]c(=O)n([C@H]2CCCO2)cc1F
dose: 80.0 mg/kg/injection, schedule: Q07DX003 (ip), vehicle: Klucel (hydroxypropylcellulose) (HPC)
  T/C: 51 % of control
dose: 160.0 mg/kg/injection, schedule: Q07DX003 (ip), vehicle: Klucel (hydroxypropylcellulose) (HPC)
  T/C: 85 % of control
dose: 320.0 mg/kg/injection, schedule: Q07DX003 (ip), vehicle: Klucel (hydroxypropylcellulose) (HPC)
  T/C: 80 % of control
dose: 640.0 mg/kg/injection, schedule: Q07DX003 (ip), vehicle: Klucel (hydroxypropylcellulose) (HPC)
  T/C: 25 % of control

## COc1cc(C)c(C2NC(=O)c3ccccc3N2)cc1C (stereo unspecified)
dose: 450.0 mg/kg/injection, schedule: Q07DX002 (ip), vehicle: Klucel (hydroxypropylcellulose) (HPC)
  T/C: 70 % of control
dose: 900.0 mg/kg/injection, schedule: Q07DX002 (ip), vehicle: Klucel (hydroxypropylcellulose) (HPC)
  T/C: 53 % of control
dose: 1800.0 mg/kg/injection, schedule: Q07DX002 (ip), vehicle: Klucel (hydroxypropylcellulose) (HPC)
  T/C: 115 % of control
dose: 3600.0 mg/kg/injection, schedule: Q07DX002 (ip), vehicle: Klucel (hydroxypropylcellulose) (HPC)
  T/C: 55 % of control

## Nc1n[nH]c2ccccc12
dose: 50.0 mg/kg/injection, schedule: Q07DX002 (ip), vehicle: acid diluted with saline
  T/C: 105 % of control
dose: 100.0 mg/kg/injection, schedule: Q07DX002 (ip), vehicle: acid diluted with saline
  T/C: 112 % of control
dose: 200.0 mg/kg/injection, schedule: Q07DX002 (ip), vehicle: acid diluted with saline
  T/C: 84 % of control
dose: 400.0 mg/kg/injection, schedule: Q07DX002 (ip), vehicle: acid diluted with saline
  T/C: 59 % of control
dose: 800.0 mg/kg/injection, schedule: Q07DX002 (ip), vehicle: acid diluted with saline
  T/C: 74 % of control

## CC1CC(C)CC(C)C(O)/C(C#N)=C/C=C/CC(C2CCCC2C(=O)O)OC(=O)CC(O)C(C)C1 (stereo unspecified)
dose: 4.0 mg/kg/injection, schedule: Q07DX002 (ip), vehicle: Klucel (hydroxypropylcellulose) (HPC)
  T/C: 83 % of control
dose: 8.0 mg/kg/injection, schedule: Q07DX002 (ip), vehicle: Klucel (hydroxypropylcellulose) (HPC)
  T/C: 81 % of control
dose: 16.0 mg/kg/injection, schedule: Q07DX002 (ip), vehicle: Klucel (hydroxypropylcellulose) (HPC)
  T/C: 108 % of control
dose: 32.0 mg/kg/injection, schedule: Q07DX002 (ip), vehicle: Klucel (hydroxypropylcellulose) (HPC)
  T/C: 115 % of control

## Cc1c(N)nc(C(CC(N)=O)NCC(N)C(N)=O)nc1C(=O)NC(C(=O)NC(C)C(O)CC(=O)NC(C(=O)NC(OC1OC(C)C(N)C(O)C1O)C(O)c1nc(-c2nc(C(=O)NCCCC(N)CC(=O)NCCCNCCCCN)cs2)cs1)C(C)O)C(OC1OC(CO)C(O)C(O)C1OC1OC(CO)C(O)C(OC(N)=O)C1O)c1cnc[nH]1 (stereo unspecified)
[9]
  T/C: 36 % of control
[10]
  T/C: 15 % of control
dose: 16.0 mg/kg/injection, schedule: Q07DX002 (ip), vehicle: saline
  T/C: 8 % of control
dose: 32.0 mg/kg/injection, schedule: Q07DX002 (ip), vehicle: saline
  T/C: 1 % of control
